According to ChEMBL document CHEMBL5042487, “Design, synthesis, and biological activity evaluation of 2-(benzo[b]thiophen-2-yl)-4-phenyl-4,5-dihydrooxazole derivatives as broad-spectrum antifungal agents” (Eur J Med Chem, 2022):
Values after ≈ are worked out from the molar mass of the structure shown.

Tests used:
Candida tropicalis = experiment: Antifungal activity against Candida tropicalis GIM 2.183 assessed as inhibition of fungal growth by NCCLS protocol based method; type: functional
Candida albicans [1] = experiment: Antifungal activity against Candida albicans GIM 2.194 assessed as inhibition of fungal growth by NCCLS protocol based method; type: functional
Candida albicans [2] = experiment: Antifungal activity against fluconazole resistant Candida albicans CaR assessed as inhibition of fungal growth by NCCLS protocol based method; type: functional
Cytochrome P450 1A2 = target: T1, Cytochrome P450 1A2 (Homo sapiens, UniProt P05177); experiment: Inhibition of CYP1A2 in human liver microsomes incubated for 10 mins in presence of NADPH by LC/MS/MS analysis; type: ADME
T1 sequence (P05177 whole entry): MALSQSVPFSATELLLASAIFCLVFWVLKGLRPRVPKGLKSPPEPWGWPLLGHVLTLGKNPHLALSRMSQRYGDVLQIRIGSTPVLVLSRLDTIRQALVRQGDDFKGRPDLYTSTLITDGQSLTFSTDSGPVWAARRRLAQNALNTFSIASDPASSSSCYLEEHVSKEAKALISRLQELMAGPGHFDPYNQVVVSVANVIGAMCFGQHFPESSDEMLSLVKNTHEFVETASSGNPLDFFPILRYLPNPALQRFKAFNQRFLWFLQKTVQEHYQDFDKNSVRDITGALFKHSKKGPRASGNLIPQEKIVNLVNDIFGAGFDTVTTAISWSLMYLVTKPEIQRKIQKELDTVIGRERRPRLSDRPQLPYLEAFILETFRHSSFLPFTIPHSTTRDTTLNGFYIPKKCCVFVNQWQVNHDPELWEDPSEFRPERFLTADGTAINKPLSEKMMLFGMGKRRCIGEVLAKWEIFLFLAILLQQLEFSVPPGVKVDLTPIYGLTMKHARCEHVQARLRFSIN

Candida albicans [3] = experiment: Antifungal activity against fluconazole and itraconazole resistant Candida albicans 17# assessed as inhibition of fungal growth by NCCLS protocol based method; type: functional
Cytochrome P450 2C9 = Cytochrome P450 2C9 (Homo sapiens, UniProt P11712); experiment: Inhibition of CYP2C9 in human liver microsomes incubated for 10 mins in presence of NADPH by LC/MS/MS analysis; type: ADME
Aspergillus fumigatus = experiment: Antifungal activity against Aspergillus fumigatus CGMCC 3.7795 assessed as inhibition of fungal growth by NCCLS protocol based method; type: functional
[4] = Metabolic stability in human liver microsomes assessed as half life at 100 uM pre-incubated for 10 mins followed by NADPH-regenerating system and measured upto 60 mins by LC-MS/MS analysis; type: ADME, Microsome; conditions: time <=70 min
Cytochrome P450 3A4 = Cytochrome P450 3A4 (Homo sapiens, UniProt P08684); experiment: Inhibition of CYP3A4 in human liver microsomes incubated for 10 mins in presence of NADPH by LC/MS/MS analysis; type: ADME
[5] = Stability in human plasma assessed as compound remaining incubated for 60 mins by LC-MS/MS analysis; type: ADME, cell-free; conditions: read-out: Stability
Candida albicans [6] = experiment: Antifungal activity against Candida albicans SC5314 assessed as inhibition of fungal growth by NCCLS protocol based method; type: functional
[7] = Metabolic stability in human liver microsomes assessed as liver intrinsic clearance at 100 uM pre-incubated for 10 mins followed by NADPH-regenerating system and measured upto 60 mins by LC-MS/MS analysis; type: ADME, Microsome; conditions: time <=70 min, read-out: CLH
Cryptococcus neoformans = experiment: Antifungal activity against Cryptococcus neoformans GIM 2.209 assessed as inhibition of fungal growth by NCCLS protocol based method; type: functional
Cytochrome P450 2C19 = Cytochrome P450 2C19 (Homo sapiens, UniProt P33261); experiment: Inhibition of CYP2C19 in human liver microsomes incubated for 10 mins in presence of NADPH by LC/MS/MS analysis; type: ADME
[8] = Stability in human plasma assessed as half life incubated for 60 mins by LC-MS/MS analysis; type: ADME, cell-free
[9] = Metabolic stability in human liver microsomes assessed as parent compound remaining at 100 uM pre-incubated for 10 mins followed by NADPH-regenerating system and measured upto 60 mins by LC-MS/MS analysis; type: ADME, Microsome; conditions: time <=70 min, read-out: Stability
[10] = Stability in human plasma assessed as compound remaining incubated for 120 mins by LC-MS/MS analysis; type: ADME, cell-free; conditions: 2 h
[11] = Metabolic stability in human liver microsomes assessed as microsomal intrinsic clearance at 100 uM pre-incubated for 10 mins followed by NADPH-regenerating system and measured upto 60 mins by LC-MS/MS analysis; type: ADME, Microsome; conditions: time <=70 min, read-out: CLH
Cytochrome P450 2D6 = Cytochrome P450 2D6 (Homo sapiens, UniProt P10635); experiment: Inhibition of CYP2D6 in human liver microsomes incubated for 10 mins in presence of NADPH by LC/MS/MS analysis; type: ADME
[12] = Metabolic stability in human liver microsomes assessed as parent compound remaining incubated upto 60 mins by LC-MS/MS analysis; type: ADME, Microsome; conditions: read-out: Stability
[13] = AUC (0 to infinity) in Sprague-Dawley rat at 2 mg/kg, iv measured upto 24 hrs by LC/MS/MS analysis; type: ADME, organism-based; design: route intravenous, dose 2 mg/kg, time <=24; conditions: in vivo
[14] = Half life in Sprague-Dawley rat at 2 mg/kg, iv measured upto 24 hrs by LC/MS/MS analysis; type: ADME, organism-based; conditions: in vivo
[15] = AUC(0 to last) in Sprague-Dawley rat at 2 mg/kg, iv measured upto 24 hrs by LC/MS/MS analysis; type: ADME, organism-based; design: route intravenous, dose 2 mg/kg, time <=24; conditions: in vivo
[16] = Clearance in Sprague-Dawley rat at 2 mg/kg, iv measured upto 24 hrs by LC/MS/MS analysis; type: ADME, organism-based; conditions: in vivo
[17] = Volume of distribution at steady state in Sprague-Dawley rat at 2 mg/kg, iv measured upto 24 hrs by LC/MS/MS analysis; type: ADME, organism-based; conditions: in vivo, read-out: Vdss
[18] = Initial plasma concentration in Sprague-Dawley rat at 2 mg/kg, iv measured upto 24 hrs by LC/MS/MS analysis; type: ADME, organism-based

Sequence of Cytochrome P450 2C9 (P11712 whole entry): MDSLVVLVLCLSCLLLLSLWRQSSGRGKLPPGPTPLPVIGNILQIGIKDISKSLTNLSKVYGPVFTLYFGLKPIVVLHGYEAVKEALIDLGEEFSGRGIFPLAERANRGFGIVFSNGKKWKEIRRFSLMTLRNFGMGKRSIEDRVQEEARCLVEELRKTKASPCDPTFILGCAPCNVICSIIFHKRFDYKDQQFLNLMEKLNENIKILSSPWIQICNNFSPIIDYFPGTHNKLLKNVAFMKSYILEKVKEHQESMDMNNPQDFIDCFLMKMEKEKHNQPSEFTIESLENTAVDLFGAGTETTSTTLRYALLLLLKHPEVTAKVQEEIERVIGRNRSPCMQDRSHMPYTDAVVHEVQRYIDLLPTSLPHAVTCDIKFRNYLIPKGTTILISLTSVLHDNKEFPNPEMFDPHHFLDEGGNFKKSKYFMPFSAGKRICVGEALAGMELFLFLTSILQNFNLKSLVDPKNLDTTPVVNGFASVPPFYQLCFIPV
Sequence of Cytochrome P450 2C19 (P33261 whole entry): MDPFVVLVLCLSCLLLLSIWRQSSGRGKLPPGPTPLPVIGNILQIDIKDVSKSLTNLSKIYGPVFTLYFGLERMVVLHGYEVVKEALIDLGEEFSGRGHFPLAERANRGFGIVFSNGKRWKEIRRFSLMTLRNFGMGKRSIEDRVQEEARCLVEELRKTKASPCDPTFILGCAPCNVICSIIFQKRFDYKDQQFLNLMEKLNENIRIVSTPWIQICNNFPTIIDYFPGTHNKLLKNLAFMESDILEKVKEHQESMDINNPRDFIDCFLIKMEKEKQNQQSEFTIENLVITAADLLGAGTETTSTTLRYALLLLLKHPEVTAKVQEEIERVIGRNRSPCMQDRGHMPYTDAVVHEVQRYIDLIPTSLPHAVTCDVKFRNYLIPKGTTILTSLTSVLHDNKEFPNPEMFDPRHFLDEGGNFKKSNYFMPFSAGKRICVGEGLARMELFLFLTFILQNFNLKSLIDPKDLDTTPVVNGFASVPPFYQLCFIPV
Sequence of Cytochrome P450 3A4 (P08684 whole entry): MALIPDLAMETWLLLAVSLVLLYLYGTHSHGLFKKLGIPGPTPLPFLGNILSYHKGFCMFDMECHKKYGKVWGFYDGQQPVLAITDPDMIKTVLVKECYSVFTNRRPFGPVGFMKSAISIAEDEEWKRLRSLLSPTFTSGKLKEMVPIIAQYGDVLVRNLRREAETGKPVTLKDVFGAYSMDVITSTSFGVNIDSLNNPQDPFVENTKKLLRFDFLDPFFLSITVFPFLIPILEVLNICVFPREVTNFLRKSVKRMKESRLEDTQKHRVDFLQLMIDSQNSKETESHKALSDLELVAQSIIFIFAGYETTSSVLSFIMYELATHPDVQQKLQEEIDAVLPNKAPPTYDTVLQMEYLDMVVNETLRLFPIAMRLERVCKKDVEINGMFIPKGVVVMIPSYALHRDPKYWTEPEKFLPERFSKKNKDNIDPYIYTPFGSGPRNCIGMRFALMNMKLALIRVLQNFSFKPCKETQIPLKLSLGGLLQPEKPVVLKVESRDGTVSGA
Sequence of Cytochrome P450 2D6 (P10635 whole entry): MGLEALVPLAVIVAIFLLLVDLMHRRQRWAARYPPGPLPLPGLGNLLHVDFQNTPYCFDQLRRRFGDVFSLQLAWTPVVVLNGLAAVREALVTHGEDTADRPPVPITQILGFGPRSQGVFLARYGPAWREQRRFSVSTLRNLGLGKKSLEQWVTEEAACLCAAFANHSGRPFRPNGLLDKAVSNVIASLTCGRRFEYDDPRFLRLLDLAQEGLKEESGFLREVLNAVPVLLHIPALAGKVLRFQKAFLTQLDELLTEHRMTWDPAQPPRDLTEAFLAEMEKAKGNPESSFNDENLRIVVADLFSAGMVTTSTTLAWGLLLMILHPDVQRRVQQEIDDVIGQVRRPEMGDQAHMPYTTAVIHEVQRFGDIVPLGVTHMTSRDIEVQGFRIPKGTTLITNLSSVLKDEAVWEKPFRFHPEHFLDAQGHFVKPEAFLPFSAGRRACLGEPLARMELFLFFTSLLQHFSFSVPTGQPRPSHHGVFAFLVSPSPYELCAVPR

## Clc1ccc(C2(Cn3cncn3)COC(c3cc4ccc(Cl)cc4s3)=N2)cc1 (stereo unspecified)
Candida tropicalis
  MIC: 0.06 µg/mL (≈ 0.14 µM)
Candida albicans [1]
  MIC: < 0.03 µg/mL
Candida albicans [2]
  MIC: 0.5 µg/mL (≈ 1.16 µM)
Cytochrome P450 1A2
  IC50: 5.67 µM
Candida albicans [3]
  MIC: > 64 µg/mL
Cytochrome P450 2C9
  IC50: 1.5 µM
Aspergillus fumigatus
  MIC: 2 µg/mL (≈ 4.66 µM)
[4]
  half-life at 100 µM: 1.16 h
Cytochrome P450 3A4
  IC50: 29.1 µM
[5]
  remaining at 1 h: 92.7%
Candida albicans [6]
  MIC: < 0.03 µg/mL
[7]
  CLint scaled at 100 µM: 18 mL/min/kg
Cryptococcus neoformans
  MIC: 0.5 µg/mL (≈ 1.16 µM)
Cytochrome P450 2C19
  IC50: 0.168 µM
[8]
  half-life: > 4.82 h
[9]
  remaining at 1 h, 100 µM: 49.9%
[10]
  Stability: 116.1%
[11]
  microsomal CLint at 100 µM: 20 µL/min/mg
Cytochrome P450 2D6
  IC50: 47.6 µM
[12]
  remaining at 1 h: 77.3%

## Fc1ccc(C2(Cn3cncn3)COC(c3cc4ccc(Cl)cc4s3)=N2)cc1 (stereo unspecified)
Candida tropicalis
  MIC: < 0.03 µg/mL
Candida albicans [1]
  MIC: < 0.03 µg/mL
Candida albicans [2]
  MIC: 0.5 µg/mL (≈ 1.21 µM)
Cytochrome P450 1A2
  IC50: 4.47 µM
Candida albicans [3]
  MIC: > 64 µg/mL
Cytochrome P450 2C9
  IC50: 2.87 µM
Aspergillus fumigatus
  MIC: 0.5 µg/mL (≈ 1.21 µM)
[13]
  AUC(0-inf): 505 ng·h/mL
[4]
  half-life at 100 µM: 1.34 h
Cytochrome P450 3A4
  IC50: 10.1 µM
[14]
  half-life: 3.34 h
[15]
  AUC(0-t) at 24 h: 483 ng·h/mL
[5]
  remaining at 1 h: 92.6%
Candida albicans [6]
  MIC: < 0.03 µg/mL
[7]
  CLint scaled at 100 µM: 15.5 mL/min/kg
Cryptococcus neoformans
  MIC: 0.25 µg/mL (≈ 0.606 µM)
[16]
  clearance: 69.4 mL/min/kg
Cytochrome P450 2C19
  IC50: 1.04 µM
[8]
  half-life: > 4.82 h
[9]
  remaining at 1 h, 100 µM: 54.6%
[10]
  Stability: 108.2%
[17]
  Vd: 10.3 L/kg
[11]
  microsomal CLint at 100 µM: 17.2 µL/min/mg
Cytochrome P450 2D6
  IC50: 31.3 µM
[12]
  remaining at 1 h: 82.6%
[18]
  C0 at 24 h: 482 ng/mL
